The text below walks through data of patent publication US20220227729A1, “IDENTIFICATION AND USE OF KRAS INHIBITORS” (Bayer Aktiengesellschaft, priority 2019, published 2022).

The structures appear in SMILES notation.

One assay deals with KRAS^WT (Homo sapiens, UniProt P01116). Description: Wild-type KRAS activation by SOS1cat assay, HTRF. Particulars: SOS1cat mediated loading of GST-KRAS WT-GDP with fluorescent GTP analogue; 50 nM GST-KRAS WT; read-out: IC50 value biochemical KRAS^wt activation assay. The protocol: (§1) Preparation of test compound dilutions. A 100-fold concentrated solution of the test compound (50 nL) in DMSO was transferred to microtiter test plates (384 or 1,536 wells, Greiner Bio-One, Germany) using either a Hummingbird liquid handler (Digilab, MA, USA) or an Echo acoustic system (Labcyte, CA, USA). Plates were sealed with adhesive foil or heat-sealed and stored at −20° C. until use. Serial dilutions of test compounds were prepared in 100% DMSO using a Precision Pipetting System (BioTek, USA).
(§2) Measurement and evaluation of inhibition data, calculation of IC50 values. Homogeneous time-resolved fluorescence (HTRF) was measured with a PHERAstar reader (BMG, Germany) using the HTRF module (excitation: 337 nm; emission 1: 620 nm, emission 2: 665 nm). The ratio of the emissions at 665 and 620 nm was used as the specific signal for further evaluation. The data were normalized using the controls: DMSO=0% inhibition, inhibition control wells with inhibitor control solution=100% inhibition. Compounds were tested in duplicates at up to 11 concentrations (e.g. 20 μM, 5.7 μM, 1.6 μM, 0.47 μM, 0.13 μM, 38 nM, 11 nM, 3.1 nM, 0.89 nM, 0.25 nM and 0.073 nM). IC50 values were calculated using a four-parameter fit, with a commercial software package (Genedata Screener, Switzerland).
(§3) KRAS^G12C activation by SOS1^cat assay (“On-assay”). This assay quantifies SOS1^cat mediated loading of KRAS^G12C-GDP with a fluorescent GTP analogue. Detection of successful loading was achieved by measuring resonance energy transfer from anti-GST-terbium (FRET donor) bound to GST-KRAS^G12c to the loaded fluorescent GTP analogue (FRET acceptor). The fluorescent GTP analogue EDA-GTP-DY-647P1 [2′/3′-O-(2-aminoethyl-carbamoyl)guanosine-5′-triphosphate labelled with DY-647P1 (Dyomics GmbH, Germany)] was synthesized by Jena Bioscience (Germany) and supplied as a 1 mM aqueous solution. A KRAS^G12C working solution was prepared in assay buffer [10 mM HEPES pH 7.4 (AppliChem), 150 mM NaCl (Sigma), 5 mM MgCl2 (Sigma), 1 mM DTT (Thermo Fisher), 0.05% BSA Fraction V pH 7.0 (ICN Biomedicals), 0.0025% (v/v) Igepal (Sigma)] containing 100 nM GST-KRAS^G12C and 2 nM anti-GST-terbium (Cisbio, France). A SOS1^cat working solution was prepared in assay buffer containing 20 nM SOS1^cat and 200 nM EDA-GTP-DY-647P1. An inhibitor control solution was prepared in assay buffer containing 200 nM EDA-GTP-DY-647P1 without SOS1^cat. All steps of the assay were performed at 20° C. A volume of 2.5 μL of the KRAS^G12C working solution was added to all wells of the test plate using a Multidrop dispenser (Thermo LabSystems). After 180 min, 2.5 μL of the SOS1^cat working solution was added to all wells, except for the inhibitor control solution wells. After 30 min incubation, HTRF was measured.
Wild-type KRAS activation by SOS1^cat assay. This assay quantifies human SOS1^cat mediated loading of wild-type GST-KRAS^WT-GDP with a fluorescent GTP analogue. The assay was performed similar to the KRAS^G12C activation by SOS1^cat assay. GST-KRAS^G12C was replaced by GST-KRAS^WT, which was used at 50 nM final concentration.
(TR-FRET usually uses a lanthanide donor and a delayed reading to cut background.)

Assay [1] has as its target recombinant kRas mutant (G12C; C51S; C80L; C118S) (Homo sapiens, UniProt P01116, C118S/C51S/C80L/G12C). Description: Covalent binding assay, intact mass LC-MS. Conditions: 25 μM protein, 25 μM compound, room temperature, 2 h. On the procedure: The percentage of covalent adduct formation at KRas G12C was determined by intact mass determination. To this end 25 μM recombinant kRas mutant (G12C; C51S; C80L; C118S) (storage buffer: 50 mM Tris, pH=8; 50 mM NaCl) were incubated with 25 μM of compound (1% v/v final DMSO concentration) at room temperature for 2 h. For LC-MS analysis the reaction was acidified by adding 4 μL of 4% v/v TFA to 20 μL reaction volume.
Liquid chromatography-mass spectrometry (LC-MS) analysis was performed using a Waters SYNAPT G2-S quadrupole time-of-flight mass spectrometer connected to a Waters nanoAcquity UPLC system. Samples were loaded on a 2.1×5 mm mass prep C4 guard column (Waters) and desalted with a short gradient (3 min.) of increasing concentrations of acetonitrile at a flow rate of 100 μL/min. Spectra were analyzed by using MassLynx v4.1 software and deconvoluted with the MaxEnt1 algorithm.
Percent conversion was determined by the ratio of signal intensities of apo-kRas and kRas+inhibitor.

In a further assay the target is KRAS^G12C (Homo sapiens, UniProt P01116, G12C). Description: KRAS G12C activation by SOS1cat assay (On-assay), HTRF. Particulars: SOS1cat mediated loading of GST-KRAS G12C-GDP with fluorescent GTP analogue; 180 min preincubation; 20° C.; read-out: IC50 value biochemical KRAS^G12C activation assay. The protocol:
as §1, §2, §3

As usually defined, the IC50 is the concentration at which inhibition is half-maximal. As to `C=CC(=O)N1CCC(c2cc3ccc(-c4ccc(F)c(F)c4F)cc3c(=O)[nH]2)C1` (stereo not drawn) [Example 7, 3-[1-(Prop-2-enoyl)pyrrolidin-3-yl]-7-(2,3,4-trifluorophenyl)isoquinolin-1(2H)-one], the IC50 on KRAS^WT is above 20 µM; at KRAS^G12C it was above 7 µM. For the same compound, the “Covalent Binding Assay (% binding)” value in assay [1] is listed as 31%.
As for `C=CC(=O)N1CCC(c2cc3ncc(-c4cccc5ncccc45)cc3c(=O)[nH]2)C1` (stereo not drawn) [Example 32, 7-[1-(Prop-2-enoyl)pyrrolidin-3-yl]-3-(quinolin-5-yl)-1,6-naphthyridin-5(6H)-one], the IC50 at KRAS^WT and on KRAS^G12C was above 20 µM each time. Besides, in assay [1], the “Covalent Binding Assay (% binding)” value amounted to 13%.
Consider `C=CC(=O)N1CCC(c2nc3ccc(-c4ccccc4F)cc3c(=O)[nH]2)C1` (stereo not drawn) [Example 12, 6-(2-Fluorophenyl)-2-[1-(prop-2-enoyl)pyrrolidin-3-yl]quinazolin-4(3H)-one], for which the IC50 was above 20 µM on KRAS^WT and 6.2 µM on KRAS^G12C. In addition, in assay [1], the “Covalent Binding Assay (% binding)” value is listed as 70%.
As to `C=CC(=O)N1CCC(c2cc3ncc(-c4cccnc4N4CCOCC4)cc3c(=O)[nH]2)C1` (stereo not drawn) [Example 35, 3-[2-(Morpholin-4-yl)pyridin-3-yl]-7-[1-(prop-2-enoyl)pyrrolidin-3-yl]-1,6-naphthyridin-5(6H)-one], the IC50 on KRAS^WT and at KRAS^G12C was above 20 µM in each case. In addition, the “Covalent Binding Assay (% binding)” value in assay [1] worked out at 0%.
